# Source: ChEMBL document CHEMBL1201862, “PubChem BioAssay data set” (2004)
# Calls of active or inactive are those of the source.
# Key:
# [1] = target: T1, Mannose-6-phosphate isomerase (Homo sapiens, UniProt P34949); test: human PMI inhibitors, high substrate, primary screen, biochemical, fluorescence intensity, high mannose 6-phosphate (AID 1220)
# T1 sequence (P34949 whole entry): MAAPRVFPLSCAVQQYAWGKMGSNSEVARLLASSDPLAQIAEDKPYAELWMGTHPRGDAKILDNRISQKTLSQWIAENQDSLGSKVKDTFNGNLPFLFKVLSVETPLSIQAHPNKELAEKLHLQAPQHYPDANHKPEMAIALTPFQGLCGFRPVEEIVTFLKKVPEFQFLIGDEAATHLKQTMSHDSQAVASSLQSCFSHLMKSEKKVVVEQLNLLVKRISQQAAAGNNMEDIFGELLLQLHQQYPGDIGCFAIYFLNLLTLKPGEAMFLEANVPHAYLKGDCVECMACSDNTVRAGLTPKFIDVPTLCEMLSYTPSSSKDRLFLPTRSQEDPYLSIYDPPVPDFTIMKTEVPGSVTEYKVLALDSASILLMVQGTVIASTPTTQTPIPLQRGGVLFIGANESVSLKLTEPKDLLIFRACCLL
# [2] = THP-1 cell cytotoxicity, dose response, cytotoxicity control for Vif-APOBEC3G degradation inhibitor project, THP-1 cells (AID 1117359); format: functional; details: Human immunodeficiency virus 1, THP-1
# [3] = test system: Streptococcus sp. 'group A'; test: growth inhibition of control SK(-) GAS strain, dose response, counter-screen for streptokinase expression inhibitor project, luminescence, kanamycin, BacTiterGlo, confirmation (AID 1900); format: functional, organism-based
# [4] = Vero cell cytotoxicity, dose response, cytotoxicity control for Vif-APOBEC3G degradation inhibitor project, Vero cells (AID 1117358); format: functional; details: Human immunodeficiency virus 1, Vero
# [5] = inhibitors of intracellular T. cruzi replication, confirmation, NIH3T3 host cells, beta-gal luminescence (AID 2044); format: functional, cell-based;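 also: intracellular parasites grown in NIH/3T3 mouse fibroblasts as host cells; luminescent beta-galactosidase reporter signal from transgenic T. cruzi replicating inside host cells; inhibitors lower the luminescence signal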
# [6] = cytotoxicity toward NIH3T3 fibroblasts, dose response, counter-screen, cell-based, ATP luminescence, mouse fibroblasts (AID 2010); format: functional;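 also: cells exposed to compound for about 90 hours before reading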
# [7] = Luminescence Cell-Based Dose Retest to Confirm Inhibitors of Cancer Stem Cells. [Related pubchem assays (depositor defined):AID2717, AID2721]; format: functional; details: Homo sapiens
# [8] = growth suppression of beta-catenin-knockout colon cells, dose response, cell-based, HCT116, human colon tumor (AID 1045); format: functional;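 also: HCT116 colon tumor cells with beta catenin knocked out; cells exposed to compound for 60 hours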
# Streptococcus = test: Group A Streptococcus viability loss, dose response, counter-screen for streptokinase expression inhibitor project, luminescence, BacTiterGlo (AID 1915); format: functional, organism-based;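 also: potency for reduction of bacterial viability or growth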
# [9] = growth suppression of PTEN-null colon cells, dose response, cell-based, HCT116 PTEN knockout (AID 1047); format: functional;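 also: HCT116 colon tumor cells with PTEN knocked out; cells exposed to compound for 60 hours before readout; potency for loss of cell viability measured by luminescence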
# Streptokinase A = target: T2, Streptokinase A (Streptococcus pyogenes serotype M1, UniProt P10520); test: S. pyogenes streptokinase expression inhibitors, potency, dose response, plasminogen activation absorbance, OD405 (AID 1914); format: functional, Streptococcus pyogenes M1 GAS;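 also: secreted streptokinase activity via plasminogen activation per viability signal from cell pellet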
# T2 sequence (P10520 whole entry): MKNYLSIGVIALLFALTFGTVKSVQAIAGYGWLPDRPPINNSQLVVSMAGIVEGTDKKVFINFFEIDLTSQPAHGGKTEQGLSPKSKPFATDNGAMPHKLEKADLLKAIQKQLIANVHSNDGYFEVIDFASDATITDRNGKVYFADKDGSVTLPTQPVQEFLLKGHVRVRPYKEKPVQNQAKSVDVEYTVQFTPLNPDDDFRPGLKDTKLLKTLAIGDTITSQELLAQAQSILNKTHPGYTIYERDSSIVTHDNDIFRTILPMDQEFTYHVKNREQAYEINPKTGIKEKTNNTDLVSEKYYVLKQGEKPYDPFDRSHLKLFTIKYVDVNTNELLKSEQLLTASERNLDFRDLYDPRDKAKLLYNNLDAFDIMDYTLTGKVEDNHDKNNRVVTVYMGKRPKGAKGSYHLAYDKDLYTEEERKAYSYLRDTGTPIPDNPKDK
# [10] = control 3'UTR Renilla luciferase suppression, dose response, counter-screen for Shn3 inhibitor project, cell-based, Clone20-Shn3RL, cherry-picked (AID 624133); format: functional
# Vero = Vero cell cytotoxicity, cytotoxicity control for flavivirus capping enzyme inhibitors (AID 588742); format: functional; details: Chlorocebus sabaeus
# Caspase-6 = target: T3, Caspase-6 (Homo sapiens, UniProt P55212); test: human caspase-6 inhibitors, dose response, biochemical, VEID-R110 fluorescence, cherry-pick (AID 720632)
# T3 sequence (P55212 whole entry): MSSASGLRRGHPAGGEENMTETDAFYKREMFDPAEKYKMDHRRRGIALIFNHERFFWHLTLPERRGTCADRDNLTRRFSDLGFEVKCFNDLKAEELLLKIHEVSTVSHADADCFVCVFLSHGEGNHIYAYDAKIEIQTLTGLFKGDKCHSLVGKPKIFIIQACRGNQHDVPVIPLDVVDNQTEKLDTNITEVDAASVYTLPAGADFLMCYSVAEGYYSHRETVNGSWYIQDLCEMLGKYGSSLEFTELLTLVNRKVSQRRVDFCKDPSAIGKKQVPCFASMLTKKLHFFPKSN
# Genome polyprotein = Genome polyprotein (dengue virus type 2, UniProt P29990); test: Dengue-2 NS5 methyltransferase inhibitors, primary screen, biochemical, confirmation dose response (AID 588689); format: functional
# [11] = Shn3 3'UTR reporter inhibitors, dose response, cell-based, Clone20 osteoblasts, firefly luciferase, cherry-picked (AID 624132); format: functional;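 also: firefly luciferase luminescence from reporter carrying the Shn3 3'UTR in osteoblasts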
# [12] = HepG2 cell cytotoxicity, dose response, cytotoxicity control for Shn3 inhibitor project, CellTiter-Glo, cherry-picked (AID 624134); format: functional, cell-based
# Sequence of Genome polyprotein (P29990 2492-3391 limits assumed): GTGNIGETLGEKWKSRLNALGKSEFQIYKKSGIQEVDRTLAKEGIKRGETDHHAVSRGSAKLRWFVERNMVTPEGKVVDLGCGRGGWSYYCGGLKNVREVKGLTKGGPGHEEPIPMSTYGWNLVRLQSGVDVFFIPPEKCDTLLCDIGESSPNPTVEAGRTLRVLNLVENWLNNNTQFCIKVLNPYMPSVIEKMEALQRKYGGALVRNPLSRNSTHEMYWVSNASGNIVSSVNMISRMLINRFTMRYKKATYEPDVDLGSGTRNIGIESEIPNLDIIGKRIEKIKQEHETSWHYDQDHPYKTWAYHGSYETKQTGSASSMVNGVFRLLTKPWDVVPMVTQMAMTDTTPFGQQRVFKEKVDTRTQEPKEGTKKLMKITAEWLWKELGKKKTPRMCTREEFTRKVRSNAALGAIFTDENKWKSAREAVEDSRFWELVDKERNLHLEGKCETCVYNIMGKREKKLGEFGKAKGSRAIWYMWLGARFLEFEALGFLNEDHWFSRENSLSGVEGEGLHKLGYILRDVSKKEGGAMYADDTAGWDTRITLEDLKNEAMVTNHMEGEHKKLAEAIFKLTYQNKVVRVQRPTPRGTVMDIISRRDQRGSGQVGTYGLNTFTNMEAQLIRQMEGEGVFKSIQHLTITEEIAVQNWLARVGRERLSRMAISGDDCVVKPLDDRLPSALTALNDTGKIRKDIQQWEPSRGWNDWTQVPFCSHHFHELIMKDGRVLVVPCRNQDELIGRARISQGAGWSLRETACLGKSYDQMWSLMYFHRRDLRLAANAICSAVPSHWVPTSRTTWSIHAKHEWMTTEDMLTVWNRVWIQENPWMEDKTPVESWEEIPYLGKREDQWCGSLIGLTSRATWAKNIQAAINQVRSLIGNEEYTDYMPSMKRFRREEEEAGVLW
smiles,measurement,setting,value
COc1ccccc1-n1c(SCC(=O)NCc2ccc3c(c2)OCO3)nc2cc([N+](=O)[O-])ccc21,IC50,[1],> 50 µM (not active)
same,CC50,[2],> 40 µM (active)
O=C(/C=C/c1ccccc1)NC(NC(=S)Nc1cc(Cl)ccc1Cl)C(Cl)(Cl)Cl (stereo not drawn),EC50,[3],2.43 µM (active)
same,CC50,[4],> 40 µM (active)
same,EC50,[5],1.73 µM (active)
same,EC50,[6],> 60 µM (not active)
same,AC50,[7],0.993 µM (active)
same,EC50,[8],16.1 µM (active)
same,EC50,Streptococcus,64.2 µM (active)
same,EC50,[9],17.3 µM (active)
same,EC50,Streptokinase A,4.43 µM (active)
CC(=O)N1CCc2c(sc(NC(=O)c3ccc([N+](=O)[O-])o3)c2C(N)=O)C1,AC50,[10],13.1 µM (active)
same,CC50,Vero,4.1 µM (active)
same,AC50,Caspase-6,12.7 µM (active)
same,IC50,Genome polyprotein,89.3 µM (active)
same,AC50,[11],1.85 µM (active)
same,AC50,[12],20 µM (active)
Cc1ccc(NC(=O)c2cc(S(=O)(=O)NCC3CCCO3)ccc2F)cc1 (stereo not drawn),AC50,Caspase-6,45.9 µM (active)
